Reference: US4004008A, “O-Tertiary amino-alkyl-N-benzoyl tyrosil amides” (priority 1974, dated 1977)
In brackets after ≈: the same amount, converted by molar mass.

Tests used:
stomach and pylorus = assay: Perfusion outflow of stomach and pylorus (gastro-pyloric spasm by morphine); assay type: in vivo; details: i.v.; CR 605 5, CR 725 10, CR 603 12.5 mg/kg; morphine 250 μg
From the text: (§8) The results shown in this table were obtained by perfusing with a physiological solution, the stomach and the bile ducts respectively and collecting the liquid emerging after the pylorus and the sphineter of Oddi.

[1] = system: bile ducts (sphincter of Oddi); assay: Perfusion outflow of bile ducts (bile duct spasm by morphine); assay type: in vivo; details: i.v.; CR 605 5, CR 725 10, CR 603 12.5 mg/kg; morphine 250 μg
From the text: as §8

rat = assay: Acute toxicity (DL50) i.v. in rat; assay type: in vivo; details: dose causing death in 50% of the animals
Experimental: (§1) In this table (n. 1) there are recorded the compounds described in the examples with their relative serial numbers, the acute toxicity, the antispastic activity observed in two experimental tests, one "in vivo" and one "in vitro". There are moreover recorded two therapeutic indices which take account of the toxicity of these compounds in relation to their in vivo and in vitro activity. More precisely:
(§2) A. DL50 which, as is known, is the quantity of the substance expressed in mg/kg of animal weight, capable of causing death in 50% of the animals treated.

[2] = system: intestinal transit of the charcoal; assay: Vegetable carbon (charcoal) intestinal transit test in vivo; design: species or system rat; details: for Antisp. activity in transit test: ED50 / ED50: i.v., rat, charcoal test, 2 hours; for ED50: Rattus norvegicus, iv, 2 h, read-out: Antisp. activity in transit test: ED50
Experimental: B. The vegetable carbon method in vivo (charcoal method) which consists of administering by oral means to rats, which have fasted for 24 hours, 0.3ml/per rate of a mixture consisting of: 10g of charcoal and 5 g of gum arabic suspended in a volume of 100 cc of H2 O as well as at the same time the substance being studied, accordingly as desired, generally i.v., s.c., oral. After two hours the animals are killed and those are taken to be negative in which the charcoal has reached the first portion of the colon and the others positive, in the sense that the substance administered has slowed down the intestinal transit of the charcoal.
In effect the animals treated with a physiological solution (checks) are all negative after two hours.
D. I.T.1 is the therapeutic index under the profile of the antispastic activity in vivo, and it is obtained by recording the DL50 (column 2) with the ED50 of the charcoal test (column 3).

[3] = system: ileum of a cavy (BaCl2 spasm); assay: Antispastic activity in vitro, Magnus method, cavy ileum stimulated with BaCl2; assay type: cell-based; details: for Antisp. activity in vitro on the ileum of a cavy by Stim. BaCl2: ED50 pap./ED50 CR: ratio to papaverine = 1, Table 1, 37°; for Antispastic activity in vitro, cavy ileum, BaCl2 (relative to papaverine = 1): Table 2, ED50 of test substance papaverine / ED50 of compound
Experimental: (§3) C. The method in vitro is that of Magnus, with the ileum of the cavy, and is in common use for all evaluations. It consists of extracting the ileum from the cavy and placing it in a receptacle which contains nutritive liquid, suitably oxygenated, and registering the movements of the organ which remains alive for several hours if maintained at a temperature of 37°. According to the traditional method followed by us, BaCl2 is put into the bath as a spasmisant: the reaction is a violent contraction of the organ. This contraction can be prevented by adding beforehand pharmaceuticals which inhibit spasms, and in this case our compounds.
The values recorded are expressed as relation between papaverine and the ED50 of our compounds. (As is known, the ED50 is the dose which results in a 50% reduction in spastic contraction).
E. I.T.2 is the therapeutic index under the profile of the antispastic activity in vitro and is given by the product between the in vitro antispastic activity index (column 4) and the corresponding DL50 (column 2).

[4] = system: caudal artery of a rat (ergotamine tartrate contraction); assay: Antispastic activity on caudal artery of rat stimulated with ergotamine tartrate; assay type: cell-based; details: ergotamine tartrate 350 μg/ml of perfusion liquid, 50% reduction of contraction
Experimental: An in vitro evaluation of this activity was made upon the caudal artery of a rat, suspended, so that one can register the variation of internal pressure, and contracted with ergotamine tartrate put in to the arterial lumen of the said vessel with a dose of 350 μg/ml of perfusion liquid.
The spasm was antagonised with the compounds being tested. The evaluation was made with ED50, i.e., a concentration of the product in the perfusion liquid expressed as μg/ml able to reduce the contraction thus induced by 50%.
Antispastic activity of some of the claimed compounds upon the caudal artery of a rat stimulated with ergotamine tartrate: values are expressed in ED50 (see specification).

[5] = system: caudal artery of a rat (electric stimulation); assay: Antispastic activity on caudal artery of rat, electrically stimulated; assay type: cell-based; details: 50% reduction of response to electric stimulation
Experimental: In another experiment the caudal artery of a rat was electrically stimulated and the pharmaceuticals were added to the bath. The activity was assessed at ED50, i.e., the quantity of pharmaceutical expressed in μg/ml of the perfusion liquid able to reduce by half the response of the electric stimulation compared with that of the checks.
Antispastic activity of some of the compounds claimed on the caudal artery of a rat, electrically stimulated: the values are expressed in ED50 (see Specification).

[6] = Acute toxicity (DL50) i.v. in rat; assay type: in vivo; details: in vivo, iv, dose causing death in 50% of the animals
Experimental: as §1, §2

urinary bladder of a rat = assay: Urinary bladder movement of anaesthetised rat in vivo; details: for ED50: intravenous, anaesthetised rat, read-out: Urinary sac of rat in vivo ED50
From the text: The in vivo evaluation was made upon the urinary bladder of a rat anaesthetised and placed in an environment heated to the animals body temperature whilst the bladder which is exposed is linked to a system which registers its movement. The pharmaceutilcals were given to the animals by intravenous means.

rat's ureter = assay: Ureter of rat in vitro; assay type: cell-based; details: for IC50: Rattus norvegicus, read-out: Ureter of rat in vitro ED50
From the text: The in vitro evaluation was made on a rat's ureter suspended in a bath of physiological liquid according to a method similar to the Magnus method already described.

[7] = system: cavy ileum (serotonine spasm); assay: Antispastic activity in vitro on cavy ileum, spasmiser serotonine; assay type: cell-based; details: Table 2; ED50 ratio
Experimental: as §3
(§4) The activities which have been described so far both in vitro and in vivo can be confirmed using different animals or different organs. These activities are further improved if, instead of BaCl2 other spasmisers are used, such as serotoninehistamine and oxytocine (see Table 2).
(§5) The values contained in the table are expressed as comparison between the
(§6) substance being studied, and they therefore express the activity of the
(§7) compounds compared with known, very active substances.

[8] = system: cavy ileum (histamine spasm); assay: Antispastic activity in vitro on cavy ileum, spasmiser histamine; assay type: cell-based; details: Table 2; ED50 ratio
Experimental: as §3, §4, §5, §6, §7

[9] = system: rat uterus (oxytocine spasm); assay: Antispastic activity in vitro on rat uterus, spasmiser oxytocine; assay type: cell-based; details: Table 2; ED50 ratio
From the text: as §4, §5, §6, §7

| SMILES | Antisp. activity in vitro on the ileum of a cavy by Stim. BaCl2: ED50 pap./ED50 CR [3] | LD50 [6] | ED50 [2] | ED50 (urinary bladder of a rat) | IC50 (rat's ureter) | Antispastic activity in vitro, cavy ileum, BaCl2 (relative to papaverine = 1) [3] | Antispastic activity in vitro, cavy ileum, serotonine (relative to methysergide = 1) [7] | Antispastic activity in vitro, cavy ileum, histamine (relative to prometazine = 1) [8] | Antispastic activity in vitro, rat uterus, oxytocine (relative to papaverine = 1) [9] | Stomach and pylorus, outflow after the 1st hour (stomach and pylorus) | Stomach and pylorus, outflow after the 2nd hour (stomach and pylorus) | Bile ducts, outflow after the 1st hour [1] | Bile ducts, outflow after the 2nd hour [1] | other results |
| --- | --- | --- | --- | --- | --- | --- | --- | --- | --- | --- | --- | --- | --- | --- |
| CN1CC[C@]23c4c5ccc(O)c4O[C@H]2[C@@H](O)C=C[C@H]3[C@H]1C5 [Morphine, morphine, reference compound] | – | – | – | – | – | – | – | – | – | – | – | – | – | Stomach and pylorus, %age variation between 1st and 2nd hour (stomach and pylorus): -54.5%; Bile ducts, %age variation between the 1st and 2nd hour [1]: -48.3% |
| CCCN(CCC)C(=O)C(Cc1ccc(OCCCN(C)C)cc1)NC(=O)c1ccccc1 (racemic) [CR 816, O-(3-dimethylamino-propyl)-N-benzoyl-DL-tyrosil-di-n-propylamide] | 2.00 | – | – | – | – | – | – | – | – | – | – | – | – | DL50 in a rat (rat): 16.0 mg/kg; Antisp. activity in transit test: ED50 ([2]; 120 min): 5.5 mg/kg; ED50, caudal artery, ergotamine tartrate [4]: 12 µg/mL (≈ 26.5 µM); ED50, caudal artery, electrically stimulated [5]: 7 µg/mL (≈ 15.4 µM) |
| COc1ccc(Cc2nccc3cc(OC)c(OC)cc23)cc1OC [Papaverine, papaverine, reference compound] | 1 | 27.2 mg/kg | 22.5 mg/kg | 7.59 mg/kg | 45.2 µg/mL (≈ 133 µM) | – | – | – | – | – | – | – | – | I.T.1: DL50/ED50 in vivo ([2]; therapeutic index, DL50 / charcoal ED50, rat i.v.): 1.2 |
| CCCN(CCC)C(=O)C(Cc1ccc(OCCN(CC)CC)cc1)NC(=O)c1ccccc1 (racemic) [CR 605, O-(2-diethylamino-ethyl)-N-benzoyl-DL-tyrosil-di-n-propylamide] | 1.25 | 33.9 mg/kg | 10.6 mg/kg | 6.25 mg/kg | 74.2 µg/mL (≈ 159 µM) | 1.25 | 0.69 | 0.17 | 0.09 | 131.2 mL | 132.9 mL | 46.6 mL | 56.6 mL | Bile ducts, %age variation between the 1st and 2nd hour [1]: +21.5% |
| CCCCNC(=O)C(Cc1ccc(OCCN2CCCC2)cc1)NC(=O)c1ccc(C)cc1 (racemic) [CR 651, O-(2-pyrrolidil-N'-ethyl)-N-toluoyl-DL-tyrosil-n-butylamide] | 1.60 | – | – | – | – | – | – | – | – | – | – | – | – | DL50 in a rat (rat): 34.1 mg/kg; Antisp. activity in transit test: ED50 [2]: 16.3 mg/kg; ED50, caudal artery, ergotamine tartrate [4]: 37 µg/mL (≈ 81.9 µM); ED50, caudal artery, electrically stimulated [5]: 19 µg/mL (≈ 42.1 µM) |
| CCCN(CCC)C(=O)C(Cc1ccc(OCCN(C)C)cc1)NC(=O)OCc1ccccc1 [CR 603, O-(2-dimethylamino-ethyl)-N-carbobenzoxy-L-tyrosil-di-n-propylamide] | 2.40 | 63 mg/kg | 30.5 mg/kg | 6.9 mg/kg | 86 µg/mL (≈ 183 µM) | 2.4 | 0.87 | 0.09 | 0.008 | 157.0 mL | 160.8 mL | 50.3 mL | 48.8 mL | IC50 ([4]; Rattus norvegicus, read-out: ED50, caudal artery, ergotamine tartrate): 105 µg/mL (≈ 224 µM); IC50 ([5]; Rattus norvegicus, read-out: ED50, caudal artery, electrically stimulated): 76 µg/mL (≈ 162 µM) |
| CCCN(CCC)C(=O)C(Cc1ccc(OCCN(CC)CC)cc1)NC(=O)c1ccc(Cl)cc1 (racemic) [CR 716, O-(2-diethylamino-ethyl)-N-(p-chloro-benzoyl)-DL-tyrosil-di-n-propylamide] | 1.58 | 56.4 mg/kg | 26.5 mg/kg | – | – | 1.58 | 0.74 | 0.08 | 0.06 | – | – | – | – | – |
| CN1[C@@H]2CC[C@H]1C[C@@H](OC(=O)C(CO)c1ccccc1)C2 (stereo partly drawn) [Atropine, atropine, reference compound] | – | – | – | – | – | – | – | – | – | – | – | – | – | activity in the urinary tract tests (urinary bladder of a rat; statement on the bladder and ureter tests of Table 3): inactive; Ureter of rat in vitro ED50 (rat's ureter): inactive |
| CCCN(CCC)C(=O)C(Cc1ccc(OCCCN2CCN(C)CC2)cc1)NC(=O)c1ccc(Cl)cc1 (racemic) [CR 725, O-[3-(N"-methyl-piperazine)-N'-propyl]-N-(p-chloro-benzoyl)-DL-tyrosil-di-n-propylamide] | 3.20 | 62.6 mg/kg | 12.2 mg/kg | 8.32 mg/kg | 27.3 µg/mL (≈ 50.3 µM) | 3.20 | 1.2 | 0.24 | 0.18 | 167.2 mL | 165.5 mL | 49.7 mL | 53.2 mL | – |
